This is an account of results in publication PMC11373361, “Expanding the inhibitor space of the WWP1 and WWP2 HECT E3 ligases” (Journal of Enzyme Inhibition and Medicinal Chemistry, 2024).

“And” between values parts separate entries of the source, which are not always exact repeats. Identical values can stand only once.

Holding throughout (format): biochemical
The target of test [1] is T1, UbcH7 (Homo sapiens, UniProt P68036).
T1 construct: made in house; host or cells: E. coli BL21-CodonPlus RP (plasmid pET3a-UbcH7 His, gifted by Professor Martin Scheffner)
As to the kind of experiment: UbcH7 counter autoubiquitination assay. As to conditions: 1 mM compound, 1% DMSO, in Table S6 73735 and 217913 synthesised. How it is done:
(§1) Cell lysate containing His-tagged WWP1-L34H or GST-tagged WWP2-FL proteins were incubated on either 96-well Clear Pierce glutathione or nickel-coated plates for 1 h in PBS. Reaction mixtures of either 3 ng/well GST-Uba1 and 15 ng/well UbcH7 or 10 ng/well His-Uba1 and 150 ng/well His-UbcH7 were incubated together in 25 mM Tris pH 8.0, 100 mM NaCl, 4 mM MgCl2 containing 60 ng/well FLAG-ubiquitin and 1.25 mM ATP for 40 min. A prior 1% BSA plate blocking step is required for nickel-coated plates. After plate washing, 2 μL of the compound was added at the desired concentration (0.1 – 1% DMSO) followed by 18 μL of the reaction mixture. This was then incubated for 2 h with 0% and 100% controls before 100 μL of anti-FLAG M2-Peroxidase HRP (1: 10,000 PBST) was added to each well and incubated for 1 h. Finally, 100 μL of 1 × TMB substrate solution (Invitrogen) was added to each well and incubated for up to 10 min until sufficient blue colour change was observed. To stop the reaction, 100 μL of 1 M HCl was added. GST-tagged Uba1 counter-assay followed a similar protocol first incubating cell lysate for 1 h before adding 20 µL of reaction mixture containing 60 ng/well FLAG-ubiquitin, 1.25 mM ATP, and 1 mM compound at 1% DMSO. His-tagged UbcH7 counter-assays preincubated 3 ng/well GST-Uba1 and 200 ng/well UbcH7 with the reaction mixture components (60 ng/well FLAG-ubiquitin, 1.25 mM ATP, and 1 mM compound at 1% DMSO) for 1 h before incubating onto nickel-coated plates for a further 1 h. All other steps were followed. The plates were washed three times with PBST (and 15 mM Imidazole) between each step. Quantification was measured by absorbance read at 450 nm, standardised to the 0% and 100% activity controls. A visual representation of the assay steps is shown in SI Figure S13. All assay optimisations have been previously reported by Watt and colleagues. IC50 non-linear regression curves were calculated in GraphPad v10.2 (Prism).
These preliminary hit compounds were further screened in dose-dependent ELISA autoubiquitination assays from 500 µM − 5 nM, with three NSC compounds for WWP1 (13151, 73735 & 85433) and only two NSC compounds for WWP2 (57103 & 217913) showing a dose-response (SI Table S4). […] To ensure the intended target was being inhibited and not the […] Uba1 (E1) and UbcH7 (E2) enzymes used in the catalytic cascade of the assay, a counter autoubiquitination screen was utilised. Upon counter-activity analysis, only with NSC-217913 did UbcH7 retain more than 90% activity and so this was selected as the sole validated hit compound from our inhibition screen (SI Table S6).

Test [2] addresses T2, WWP2-FL (Homo sapiens, UniProt O00308).
T2 construct: full-length WWP2 (WWP2-FL); made in house; host or cells: E. coli BL21-CodonPlus RP (plasmid pGEX2T-WWP2-FL, Dr Andrew Chantry's Lab)
As to the kind of experiment: WWP2 ELISA autoubiquitination assay. To be noted: for relative activity, single-shot autoubiquitination: 1 mM compound, hit threshold less than 50% relative activity; for relative autoubiquitination activity, single-shot: 500 µM compound, normalised to 0% and 100% controls. How it is done: as §1
(§2) The DSF hit compounds were initially screened using a single-shot WWP1 and WWP2 ELISA autoubiquitination assay at 500 µM compound (1% DMSO), measuring inhibition against their relative autoubiquitination activity following protocols previously described. […] Four NSC compounds for WWP1 (13151, 73735, 85433 & 637578) and three NSC compounds for WWP2 (26112, 57103 & 217913) were initially selected having a threshold of less than 50% relative activity when compared to 0% and 100% controls (Figure 2).
(§3) The resulting synthesised analogues were screened using the single-shot ELISA autoubiquitination assay at 1 mM compound concentration (1% DMSO) before IC50 values were calculated for hit compounds (SI Figure 2–4).
ELISA Autoubiquitination Assay
Figure S13. Schematic diagram of the WWP2 ELISA autoubiquitination assay. (1a) Immobilisation of GST-Tagged WWP2 on glutathione coated plates. The GST-tagged (green) WWP2-FL (orange) is bound to glutathione (black), further linked via an SSMPB linker (pink) bound to haemoglobin (red). (1b) Reaction mixture of His-E1, His-E2 and flag-tagged Ub. Flag-tagged (red) Ub (dark pink) is first charged to Uba1/E1 (light pink) using ATP (blue) and then transferred to UbcH7/E2 (light brown).
(2) Ub charged E2 incubation with immobilised WWP2. UbcH7/E2 transfers flag-tagged Ub to WWP2 before WWP2 auto-ubiquitination occurs in the absence or presence of compounds (blue). (3) Incubation of recombinant HRP anti-flag antibody with auto-ubiquitinated WWP2. Anti-flag antibody (purple) containing recombinant HRP (orange) associates with the flag-tagged Ub. (4) HRP-mediated oxidation of TMB.
Single-electron oxidation of TMB by HRP in the presence of HO creates first a blue colour change, before acidification results in a yellow colour change (450 nm) stopping
(In an ELISA, binding on a coated surface is turned into a signal by an enzyme label.)

Test [3] addresses T3, WWP1-L34H (Homo sapiens, UniProt Q9H0M0).
T3 construct: WWP1- 2,3-linker-WW3-WW4-HECT (WWP1-L34H); made in house; host or cells: E. coli BL21-CodonPlus RP (plasmid pET32a-WWP1-L34H, gifted by Dr Wenyu Wen)
Nature of the test: WWP1 ELISA autoubiquitination assay. As to conditions: for relative activity, single-shot autoubiquitination: 1 mM compound, hit threshold less than 50% relative activity; for relative autoubiquitination activity, single-shot: 500 µM compound, normalised to 0% and 100% controls. How it is done: as §1, §2, §3

Setting [4] is: synthesised compound, WWP2-FL, 1% DMSO, 95% CI range in brackets.
The mark [5] stands for this setting: sample used directly from the NCI library, dose range 500 µM - 5 nM.

T1 sequence (P68036 whole entry): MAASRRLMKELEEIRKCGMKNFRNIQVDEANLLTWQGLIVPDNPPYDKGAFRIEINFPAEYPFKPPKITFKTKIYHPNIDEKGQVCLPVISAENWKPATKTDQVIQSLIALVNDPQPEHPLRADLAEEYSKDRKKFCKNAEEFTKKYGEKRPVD
T2 sequence (O00308 whole entry): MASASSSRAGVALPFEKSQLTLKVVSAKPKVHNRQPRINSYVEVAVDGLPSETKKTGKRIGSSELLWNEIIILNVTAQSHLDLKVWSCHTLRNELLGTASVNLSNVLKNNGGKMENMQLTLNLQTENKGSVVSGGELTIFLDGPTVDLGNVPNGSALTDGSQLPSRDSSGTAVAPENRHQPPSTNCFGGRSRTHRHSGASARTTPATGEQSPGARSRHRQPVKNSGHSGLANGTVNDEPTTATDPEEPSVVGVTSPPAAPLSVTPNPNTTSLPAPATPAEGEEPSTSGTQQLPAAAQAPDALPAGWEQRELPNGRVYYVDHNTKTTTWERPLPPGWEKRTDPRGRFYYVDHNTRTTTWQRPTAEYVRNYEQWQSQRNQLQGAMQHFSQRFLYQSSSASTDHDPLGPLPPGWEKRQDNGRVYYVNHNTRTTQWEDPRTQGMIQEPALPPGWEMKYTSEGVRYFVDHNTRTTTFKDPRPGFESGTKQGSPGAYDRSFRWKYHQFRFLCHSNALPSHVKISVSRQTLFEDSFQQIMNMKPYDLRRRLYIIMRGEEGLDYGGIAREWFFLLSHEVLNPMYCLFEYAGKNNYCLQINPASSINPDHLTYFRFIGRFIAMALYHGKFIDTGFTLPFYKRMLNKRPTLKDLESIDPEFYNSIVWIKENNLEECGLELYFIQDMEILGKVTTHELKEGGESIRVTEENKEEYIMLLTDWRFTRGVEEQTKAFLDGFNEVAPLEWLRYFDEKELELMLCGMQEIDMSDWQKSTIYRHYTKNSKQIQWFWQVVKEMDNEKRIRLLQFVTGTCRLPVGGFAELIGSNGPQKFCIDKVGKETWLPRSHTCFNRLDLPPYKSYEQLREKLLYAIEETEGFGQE

Regarding `O=C(CSc1nc2nc(Cl)c(Cl)nc2[nH]1)N[C@@H](CO)C(=O)O` [Compound 17, 3-hydroxy-2(S)-[({5,6-dichloro-1H-imidazo[4,5-b]pyrazine-2-yl}sulfanyl)acetamido]propanoic acid], in test [1], the “UbcH7 Activity” value was found to be 88.8 ± 0.7%.

For the molecule `Nc1nc2nc(Br)cnc2s1` [Compound 26, 5-bromothiazolo[4,5-b]pyrazine-2-amine], the “relative activity, single-shot autoubiquitination” value (“relative activity” below) in test [2] (1% DMSO) was “some decrease in activity”. Broadly, the IC50 is the concentration at which inhibition is half-maximal. As for `O=C(O)CCSc1nc2nc(Cl)c(Cl)nc2[nH]1` [Compound 13, 3-({5,6-Dichloro-1H-imidazo[4,5-b]pyrazine-2-yl}sulfanyl)propionic acid], in test [3] (1% DMSO), the “relative activity” value is given as “failed to reach the activity threshold”. Also, in test [2] (setting [4]), it took 603 µM to reach half-maximal inhibition (IC50). `CCc1oc2ccccc2c1C(=O)c1cc(Br)c(O)c(Br)c1` [NSC-85433]: the “relative autoubiquitination activity, single-shot” value in test [3] (1% DMSO) is “less than 50%”. Besides, the IC50 was < 100 µM and 92.4 µM in test [3] (setting [5]); 256 µM in test [2] (setting [5]). In addition, the “UbcH7 Activity” value in test [1] was 7.5 ± 0.6%. In the case of `O=C(O)CNC(=O)CSc1nc2nc(Cl)c(Cl)nc2[nH]1` [Compound 16, 2-({5,6-dichloro-1H-imidazo[4,5-b]pyrazine-2-yl}sulfanyl)acetamidoacetic acid], the “relative activity” value in test [3] (1% DMSO) and in test [2] (1% DMSO) was “better single-shot data” in each case. On to `CCOC(=O)CNC(=O)CSc1nc2nc(Cl)c(Cl)nc2[nH]1` [Compound 12, Ethyl 2-({5,6-dichloro-1H-imidazo[4,5-b]pyrazine-2-yl}sulfanyl)acetamidoacetate], for which the “relative activity” value in test [3] (1% DMSO) and in test [2] (1% DMSO) was “better single-shot data” throughout.

As to `O=C(/C=C/c1ccccc1Cl)c1ccc(O)cc1` [NSC-13151], the “relative autoubiquitination activity, single-shot” value in test [3] (1% DMSO) is recorded as “less than 50%”. Also, it took 397 µM to reach half-maximal inhibition in test [3] (setting [5]) (IC50). In the case of `Cc1ccc(C=C2C(Cl)=C(Cl)C(Cl)=C2Cl)cc1` [NSC-26112], the “relative autoubiquitination activity, single-shot” value in test [2] (1% DMSO) is reported as “less than 50%”. As to `CCOC(=O)Cc1cn2cc(Cl)nc(Cl)c2n1` [Compound 4, Ethyl 6,8-Dichloroimidazo[1,2-a]pyrazine-2-acetate], the “relative activity” value in test [2] (1% DMSO) is on record as “some decrease in activity”.

On to `CCOC(=O)CSc1nc2cncnc2[nH]1` [Compound 21, Ethyl 2-({9H-imidazo[4,5-d]pyrimidine}sulfan-8-yl)acetate], for which the “relative activity” value in test [3] (1% DMSO) was “reducing relative activity”. Regarding `N#CCSc1nc2nc(Cl)c(Cl)nc2[nH]1` [Compound 7, 2-({5,6-Dichloro-1H-imidazo[4,5-b]pyrazine-2-yl}sulfanyl)acetonitrile], in test [2] (setting [4]), the midpoint of inhibition, the IC50, lay at 856 µM and the “WWP2 IC50” value was “only limited inhibition”. Moreover, the “UbcH7 Activity” value in test [1] is given as 94.2 ± 0.8%. Take `CCOC(=O)CSc1nc2nc(Cl)c(Cl)nc2[nH]1` [Compound 6, Ethyl 2-({5,6-dichloro-1H-imidazo[4,5-b]pyrazine-2-yl}sulfanyl)-acetate]: the IC50 in test [3] (setting [5]) is 33.3 µM; in test [3] (synthesised compound, WWP1-L34H, 1% DMSO, 95% CI range in brackets) it was 158 µM; in test [2] (setting [5]), < 100 µM and 69.8 µM. For the same molecule, in test [2] (1% DMSO), the “relative autoubiquitination activity, single-shot” value is recorded as “less than 50%”. Further, the “WWP2 IC50” value in test [2] (synthesised compound, WWP2-FL, 1% DMSO, 95% CI range in brackets, listed as 6/217913) is listed as “Unstable^a”; in test [2] (synthesised compound, WWP2-FL, 1% DMSO, 95% CI range in brackets, listed as NSC-217913) it was “too weak to determine accurately”. Moreover, the figures for the “UbcH7 Activity” value in test [1] and in test [1] (listed as NSC-217913) were 92.2 ± 1.1% and “more than 90%”, respectively. With `CCCC(C)Sc1nc2nc(Cl)c(Cl)nc2[nH]1` (stereo not shown) [Compound 8, 2-({5,6-dichloro-1H-imidazo[4,5-b]pyrazine-2-yl}sulfanyl)pentane], the “relative activity” value in test [3] (1% DMSO) and in test [2] (1% DMSO) was “rather small decrease in relative activity” throughout.

For `CCOC(=O)Cc1cn2cc(Cl)ncc2n1` [Compound 2, Ethyl 6-chloroimidazo[1,2-a]pyrazine-2-acetate], the “relative activity” value in test [2] (1% DMSO) is “some decrease in activity”.

Take `CCOC(=O)CSc1nc2nc(Cl)cnc2[nH]1` [Compound 5, Ethyl 2-({5-chloro-1H-imidazo[4,5-b]pyrazine-2-yl}sulfanyl)acetate]: the “relative activity” value in test [2] (1% DMSO) is reported as “some decrease in activity”. `O=[N+]([O-])c1cc([N+](=O)[O-])c2cccnc2c1O` [NSC-57103]: in test [2] (1% DMSO), the “relative autoubiquitination activity, single-shot” value is listed as “less than 50%”. This molecule registered an IC50 in test [2] (setting [5]) of 513 µM. Take `NC(=Nc1nc(-c2ccccn2)cc2ccccc12)c1ccccn1` [NSC-637578]: the “relative autoubiquitination activity, single-shot” value in test [3] (1% DMSO) was “less than 50%”.

As for `CCCC(=O)CSc1nc2nc(Cl)c(Cl)nc2[nH]1` [Compound 10], the “relative activity” value in test [3] (1% DMSO) and in test [2] (1% DMSO) was “rather small decrease in relative activity” each time. With “Ethyl 2-[({imidazo[4,5-c]pyridine}sulfan-2-yl-5N-(ethyl-2-acetate))]acetate [Compound 23]”, in test [3] (1% DMSO), the “relative activity” value is “reducing relative activity”. As to `O=C(CSc1nc2nc(Cl)c(Cl)nc2[nH]1)N1CCOCC1` [Compound 9, 2-({5,6-dichloro-1H-imidazo[4,5-b]pyrazine-2-yl}sulfanyl)acetylmorpholine], the “relative activity” value in test [3] (1% DMSO) is listed as “failed to reach the activity threshold”. Moreover, half-maximal inhibition in test [2] (setting [4]) (IC50) required 622 µM. With `CCOC(=O)CSc1nc2nccnc2[nH]1` [Compound 20, Ethyl 2-({1H-imidazo[4,5-b]pyrazine}sulfanyl-2-yl)acetate], the “relative activity” value in test [3] (1% DMSO) was “reducing relative activity”. Turning to `COC(=O)[C@H](COC(C)(C)C)NC(=O)CSc1nc2nc(Cl)c(Cl)nc2[nH]1` [Compound 14, Methyl 3-(tert-butoxy)-2(S)-[2-({5,6-dichloro-1H-imidazo[4,5-b]pyrazine-2-yl}sulfanyl)acetamido]propionate], the “relative activity” value in test [3] (1% DMSO) and in test [2] (1% DMSO) was “rather small decrease in relative activity” throughout.
